Experimental data published in patent US20230399325A1, “SUCCINATE AND CRYSTAL FORM THEREOF AS THERAPEUTICS” (AUCENTRA THERAPEUTICS PTY LTD, priority 2020, published 2023).
Read-outs that look alike come from different tables or passages of the source.

Legend:
PC-3 = assay: Thymidine incorporation (3H-TdR) anti-proliferative assay, PC-3; type: cell-based; conditions: Homo sapiens; PC-3, Prostate cancer
Description: (§1) The thymidine incorporation (3H-TdR) assay was used to assess the anti-proliferative effect of the Compound A succinate on tumor cell lines. The cells were treated with a series of concentrations of Compound A succinate for 24 hours; 3H-TdR was added, and the cells were continued in the incubator for further 48 hours. Scintillation fluid was added, read on a liquid scintillation counter, and the inhibiting cell growth by 50% (IC50) was calculated as shown in Table 5.

SK-OV-3 = assay: Thymidine incorporation (3H-TdR) anti-proliferative assay, SK-OV-3; type: cell-based; conditions: Homo sapiens; SK-OV-3, Ovarian cancer
Description: as §1

U-87MG = assay: Thymidine incorporation (3H-TdR) anti-proliferative assay, U-87MG; type: cell-based; conditions: Homo sapiens, Brain tumor
Description: as §1

Raji = assay: Thymidine incorporation (3H-TdR) anti-proliferative assay, Raji; type: cell-based; conditions: Homo sapiens, Lymphoma
Description: as §1

MDA-MB-435S = assay: Thymidine incorporation (3H-TdR) anti-proliferative assay, MDA-MB-435S; type: cell-based; conditions: Homo sapiens, Breast cancer
Description: as §1

[1] = Solid-state stability, 14 days, HPLC; type: physicochemical
Description: Compound A salts and Compound A were tested for their solid-state stability under the conditions of 25° C./60% RH and 40° C./75% RH.

PANC-1 = assay: Thymidine incorporation (3H-TdR) anti-proliferative assay, PANC-1; type: cell-based; conditions: Homo sapiens; PANC-1, Pancreatic cancer
Description: as §1

[2] = Dynamic solubility in water and FaSSIF at 37° C.; type: physicochemical; conditions: for solubility at 1 h / solubility at 2 h / solubility at 4 h / solubility at 24 h: thermodynamic from solid, read-out: S: Solubility
[3] = Pharmacokinetic study of Compound A succinate in cynomolgus monkeys; type: in vivo; conditions: for AUC(0-inf) / AUC(0-t) / Cmax / clearance / half-life / Vd: cynomolgus monkey, plasma; for Vd: read-out: Vz; for F: succinate
Description: In a separate study, four cynomolgus monkeys were divided into two groups (n=2 per group), and given Compound A succinate at 2 mg/kg by i.v. and 24 mg/kg by i.g., respectively. The plasma samples were collected, analyzed and PK parameters were calculated as above.

ZR-75-1 = assay: Thymidine incorporation (3H-TdR) anti-proliferative assay, ZR-75-1; type: cell-based; conditions: Homo sapiens; ZR-75-1, Breast cancer
Description: as §1

[4] = test system: COLO 205 colorectal tumor xenograft; assay: COLO 205 colorectal tumor xenograft; type: in vivo, mice; conditions: for Tumor volume (±S): 21 days; for Inhibition of tumor growth (T/C): day 21, succinate
Description: A separate study of Compound A succinate was conducted in COLO 205 colorectal tumor xenograft. The tumor-bearing mice (n=8) were treated orally with vehicle (ultra-pure water), or Compound A succinate (50 or 100 mg/kg) once daily for 21 days. As a positive control chemotherapy 5-FU (15 mg/kg) was given intraperitoneally. […] 5-FU was also effective with a T/C=47.2% (Table 7).

MV-4-11 = assay: Thymidine incorporation (3H-TdR) anti-proliferative assay, MV-4-11; type: cell-based; conditions: Homo sapiens, MV4-11; MV-4-11, Leukemia
Description: as §1

[5] = Hygroscopicity by dynamic moisture adsorption (DVS); type: physicochemical; conditions: for Hygroscopicity: 25° C./80% RH, succinate
Description: Dynamic moisture adsorption (DVS) was used to evaluate the hygroscopicity of compound A and salt forms under the condition of 25° C. and 80% RH.

[6] = test system: A2780 ovarian cancer cells; assay: Subcutaneous A2780 ovarian cancer xenograft; type: in vivo, female BALB/c nude mice; conditions: for Tumor volume (±S): 14 days; for Mean tumor growth inhibition (T/C): day 14
Description: Compound A succinate was also assessed for in vivo anti-tumor activity in subcutaneous xenografts. Briefly, female BALB/c nude mice were inoculated with A2780 ovarian cancer cells; when the mean tumour volume reached 150-200 mm^3, animals were randomized to groups. The animals (n=8 per group) were treated orally with vehicle (ultra-pure water), Compound A succinate (62.5, 125 or 250 mg/kg), or Palbociclib (75 mg/kg) once a day for 14 consecutive days. Mice were observed daily for signs of toxicity and weight loss, and tumour volume measured every other day. […] Palbociclib was efficacious at 75 mg/kg, resulting in T/C of 42.8% (Table 6).

COLO-205 = assay: Thymidine incorporation (3H-TdR) anti-proliferative assay, COLO-205; type: cell-based; conditions: Homo sapiens; COLO-205, Colon cancer
Description: as §1

MOLM-13 = assay: Thymidine incorporation (3H-TdR) anti-proliferative assay, MOLM-13; type: cell-based; conditions: Homo sapiens; MOLM-13, Leukemia
Description: as §1

[7] = iv, i.v. 2 mg/kg, female cynomolgus monkeys
[8] = iv, i.v. 2 mg/kg, male cynomolgus monkeys
[9] = po, i.g. 24 mg/kg, female cynomolgus monkeys
[10] = po, i.g. 24 mg/kg, male cynomolgus monkeys

Structure (SMILES): CCN1CCN(Cc2ccc(Nc3ncc(F)c(-c4sc(NC5CCCC5)nc4C)n3)nc2)CC1.O=C(O)CCC(=O)O [Compound A succinate, N-Cyclopentyl-5-(2-((5-((4-ethylpiperazin-1-yl)methyl)pyridin-2-yl)amino)-5-fluoropyrimidin-4-yl)-4-methylthiazol-2-amine succinate]
- IC50 (PC-3): 168 nM
- IC50 (SK-OV-3): 812 nM
- IC50 (U-87MG): 42.6 nM
- IC50 (Raji): 608 nM
- IC50 (MDA-MB-435S): 37.3 nM
- Purity ([1]; 25° C./60% RH): 97.9 area %
- Relative purity ([1]; 25° C./60% RH): 100.0 % of initial
- Purity ([1]; 40° C./75% RH): 97.9 area %
- Relative purity ([1]; 40° C./75% RH): 100.0 % of initial
- IC50 (PANC-1): 812 nM
- solubility compared to Compound A free base ([2]; both FaSSIF and water): significantly increased
- solubility at 1 h ([2]; FaSSIF): 8200 µg/mL
- solubility at 2 h ([2]; FaSSIF): 8100 µg/mL
- solubility at 4 h ([2]; FaSSIF): 8100 µg/mL
- solubility at 24 h ([2]; FaSSIF): 1100 µg/mL
- solubility at 1 h ([2]; water, H2O): 2000 µg/mL
- solubility at 2 h ([2]; water, H2O): 2000 µg/mL
- solubility at 4 h ([2]; water, H2O): 2100 µg/mL
- solubility at 24 h ([2]; water, H2O): 2300 µg/mL
- AUC(0-inf) [3, 7]: 1190 ng·h/mL
- AUC(0-t) [3, 7]: 1170 ng·h/mL
- Cmax [3, 7]: 371 ng/mL
- clearance [3, 7]: 31 mL/min/kg
- half-life [3, 7]: 4.7 h
- Vd [3, 7]: 13.2 L/kg
- AUC(0-inf) [3, 8]: 872 ng·h/mL
- AUC(0-t) [3, 8]: 843 ng·h/mL
- Cmax [3, 8]: 240 ng/mL
- clearance [3, 8]: 39.1 mL/min/kg
- half-life [3, 8]: 5.3 h
- Vd [3, 8]: 17.7 L/kg
- AUC(0-inf) [3, 9]: 7740 ng·h/mL
- AUC(0-t) [3, 9]: 7700 ng·h/mL
- Cmax [3, 9]: 532 ng/mL
- half-life [3, 9]: 6 h
- AUC(0-inf) [3, 10]: 7420 ng·h/mL
- AUC(0-t) [3, 10]: 7370 ng·h/mL
- Cmax [3, 10]: 593 ng/mL
- half-life [3, 10]: 6 h
- F ([3]; i.g. 24 mg/kg, female cynomolgus monkeys): 54.9%
- F ([3]; i.g. 24 mg/kg, male cynomolgus monkeys): 72.8%
- IC50 (ZR-75-1): 35.7 nM
- Tumor volume (±S) ([4]; 50 mg/kg orally once daily): 941.10 ± 80.90 mm^3
- Inhibition of tumor growth (T/C) ([4]; 50 mg/kg orally once daily, listed as compound A Succinate): 36.26%
- Inhibition of tumor growth (T/C) ([4]; 50 mg/kg orally once daily): 36.3%
- Tumor volume (±S) ([4]; 100 mg/kg orally once daily): 443.72 ± 40.49 mm^3
- Inhibition of tumor growth (T/C) ([4]; 100 mg/kg orally once daily, listed as compound A Succinate): 74.69%
- Inhibition of tumor growth (T/C) ([4]; 100 mg/kg orally once daily): 74.7%
- IC50 (MV-4-11): 88.8 nM
- Moisture absorbed at 25° C./80% RH [5]: 1.1%
- Hygroscopicity ([5]; listed as Succinate): Slightly hygroscopic
- Hygroscopicity [5]: minimal hygroscopicity
- Tumor volume (±S) ([6]; 62.5 mg/kg orally once a day): 1789.5 ± 131.5 mm^3
- Mean tumor growth inhibition (T/C) ([6]; 62.5 mg/kg orally once a day): 44.8%
- Tumor volume (±S) ([6]; 125 mg/kg orally once a day): 1009.6 ± 87.0 mm^3
- Mean tumor growth inhibition (T/C) ([6]; 125 mg/kg orally once a day): 70.8%
- Tumor volume (±S) ([6]; 250 mg/kg orally once a day): 546.4 ± 71.1 mm^3
- Mean tumor growth inhibition (T/C) ([6]; 250 mg/kg orally once a day): 86.2%
- IC50 (COLO-205): 839 nM
- IC50 (MOLM-13): 260 nM
